The text below walks through data of patent US11414677B2, “Methods and compositions for performing continuous directed evolution” (Massachusetts Institute of Technology, priority 2017, dated 2022).

The subject of series [1] is endogenous tTA operator (pLVX-TRE3G.eGFP reporter). The experiment in a line: Reverse genetics of tTA variants with pLVX-TRE3G.eGFP reporter in HEK293A cells. As to conditions: transient co-transfection with eGFP reporter, presence or absence of 20 μM dox. Format: cell-based, human. From the text:
FIGS. 22A-22F. FIG. 22A. Serial-passaging schemes for evolving functional tTA variants that gain dox resistance in human cells. Two approaches to selection pressure were used, either with increasing dox concentrations (Trial 1) or a constant, moderate dox concentration (Trial 2). FIG. 22B. tTA-induced GFP expression in the presence of dox after each round of evolution for Trial 1. Phenotyping cells were infected with passaged viral populations and analyzed by flow cytometry. The percentage of infected GFP-positive cells at each passage in the presence of dox was normalized to the percentage of infected GFP-positive cells at each passage in the absence of dox. N.D.=not detectable owing to low viral titer. FIG. 22C. Non-reference allele frequencies for all mutations observed at >1% frequency over the course of the directed evolution experiment for Trial 1 (see FIG. 28 for Trial 2). […]
HEK-293A cells were seeded in a 12-well plate at ˜4×10^5 cells/well. […] 48 h post-transfection, cells were analyzed by flow cytometry (see above for sample preparation). Promoter activity was calculated based on the mean fluorescence intensity of GFP fluorescence, backgated for only mCherry-expressing cells.
HEK-293A cells were seeded in a 12-well plate (˜400,000 cells/well). […] 48 h post-transfection, samples were stained with 0.2 μg/mL DAPI, and analyzed on a BD LSR II analyzer.

The subject of series [2] is ΔAdPol.adenovirus encoding either tTA or RFP. The experiment in a line: tTA-induced resistance to antibiotic inhibition of adenoviral replication. Format: cell-based, Adenovirus type 5. As to conditions: treatment 10 h post-infection. On the procedure:
FIGS. 48A-48D. tTA-induced resistance to antibiotic mediated inhibition of adenoviral infection. Either wild-type AdPol cells, TRE3G.puroR cells, or TRE3G.blastR cells were infected with ΔAdPol.adenovirus encoding either tTA (+tTA) or RFP (−tTA). Ten hours post-infection, wild-type AdPol cells were treated with either puromycin (FIG. 48A) or (FIG. 48B) blasticidin, TRE3G.puroR cells were treated with puromycin (FIG. 48C), and TRE3G.blastR cells were treated with blasticidin (FIG. 48D). After 2, days, the infections were harvested and titered by flow cytometry. Titers are given in infectious units per milliliter (IU/mL), defined as the volume of adenoviral supernatant required to induce fluorescence in a cell as analyzed by flow cytometry. Dashed line represents the limit of detection (L.O.D) of the assay. Titers below this limit are inaccurate owing to the percentage of infected cells being below the 1% error threshold of flow cytometry.
Either RFP.ΔAdPol.adenovirus, or tTA.mCherry.ΔAdPol.adenovirus (TABLE 16) was used to infect a 24-well plate of either wild-type AdPol cells, TRE3G.puroR cells, or TRE3G.blastR cells (150,000 cells/well) (TABLE 17) at MOI=1, and either puromycin or blasticidin was added 10 h post-infection. Viral supernatants were harvested ˜48 h post-infection, and titered by flow cytometry as described above.

A further series deals with HEK293A cells. Kind of series: Resazurin assay to assess acute toxicity of common tissue culture antibiotics. It is filed as cell-based, human. As to conditions: two-day treatment; for acute toxicity (cell viability by resazurin fluorescence): various concentrations. On the procedure: FIGS. 46A-46D. Resazurin assay to assess acute toxicity of common tissue culture antibiotics. HEK293A cells were treated for two days with either G418 (FIG. 46A), puromycin (FIG. 46B), blasticidin (FIG. 46C), or hygromycin (FIG. 46D), and cell viability was analyzed by resazurin fluorescence.
A 96-well plate was seeded with HEK293A cells (˜15,000) and treated with either puromycin HCl (Corning), Hygromycin B (Thermo Fisher), Blasticidin S HCl (Thermo Fisher), or G418 (Enzo). Two days later, 10 μL of 0.1 mg/mL resazurin (MilliporeSigma) was added and incubated for 1.5 h. Media was transferred to a fresh 96-well plate and fluorescence was analyzed on a Bio-Tek Synergy H1 Hybrid Microplate Reader.
A general note: Resazurin is reduced to fluorescent resorufin, in cell work by metabolically active cells.

The subject of a further series is RFP.ΔAdPol.adenovirus. The experiment in a line: Time course of antibiotic inhibition of adenoviral replication. It is filed as cell-based, Adenovirus type 5. As to conditions: treatment initiated 24 h post-infection. The source says:
FIGS. 47A-47B. Time-course of antibiotic-mediated inhibition of adenoviral infection. HEK293A cells expressing wild-type AdPol were infected with RFP.ΔAdPol.adenovirus and treated with either a) puromycin, or b) blasticidin at various time points post-infection (h.p.i.=hours post-infection). After 2 days, the infections were harvested and titered by flow cytometry. Titers are given in infectious units per milliliter (IU/mL), defined as the volume of adenoviral supernatant required to induce fluorescence in a cell as analyzed by flow cytometry. Dashed line represents the limit of detection (L.O.D) of the assay. Titers below this limit are inaccurate due to the percentage of infected cells being below the 1% error threshold of flow cytometry.
RFP.ΔAdPol.adenovirus (TABLE 16) was used to infect a 24-well plate of wild-type AdPol cells (150,000 cells/well) (TABLE 17) at MOI=1, and either blasticidin or puromycin was added at various time points following the infection. Viral supernatants were harvested ˜48 h post-infection, and titered by flow cytometry as described above.

Series [3] has as its system AdGLΔPol adenoviral genome. The experiment in a line: Mutagenesis rate determination by serial passaging and deep sequencing of a 6.5 kb fragment. It is filed as cell-based, Adenovirus type 5. The method, then: The mutagenic potential of AdPol variants was evaluated following a previously reported protocol (Uil T. G. et al., Nucleic Acids Res. 39, e30 (2011)). Briefly, a polymerase-deleted Ad5, AdGLΔPol, was subjected to 10 serial passages on cultures of 911 cells (Fallaux F. J. et al., Hum. Gene Ther. 7, 215-222 (1996)) expressing EP-Pol in order to accumulate mutations. After 10 serial passages, 911 cells expressing wild-type AdPol were infected in a 6-well plate at ˜50 plaque-forming units/well in order to amplify pools of 50 viral clones for sequencing. Using pools of 50 or fewer clonal viruses ensured that mutations present in only one clone will be present at a frequency above the threshold of detection. From each 50-clone viral pool, a 6.5-kb fragment was amplified and prepared for deep sequencing. Libraries were subjected to 32 cycles of single-read sequencing by an Illumina Genome Analyzer II.
The mutagenic potential of EP-Pol was evaluated following a previously reported protocol (Uil T. G. et al., Nucleic Acids Res., 39(5): e30 (2011)). Briefly, a polymerase-deleted Ad5, AdGLΔAdPol, was subjected to 10 serial passages on cultures of 911 cells expressing EP-Pol in order to accumulate mutations. After 10 serial passages, 911 cells expressing wild-type AdPol were infected in a 6-well plate at ˜50 plaque-forming units/well in order to amplify pools of 50 viral clones for sequencing. Using pools of 50 or fewer clonal viruses ensures that mutations present in only one clone will be present at a frequency above the threshold of detection. From each 50-clone viral pool, a 6.5 kb fragment was amplified and prepared for deep sequencing. Libraries were subjected to 32 cycles of single-read sequencing by an Illumina Genome Analyzer II (GA-II).

Marks after values point to notes of the source that are not given here.

Regarding “H100Y: tTA variant with single amino acid substitution H100Y, fixed in Trial 2”, the “dox-resistance of tTA variant” value in series [1] was “confer dox-resistance”.

With `COc1ccc(C[C@H](N)C(=O)N[C@H]2[C@@H](O)[C@H](n3cnc4c(N(C)C)ncnc43)O[C@@H]2CO)cc1` [puromycin], the “effect on ΔAdPol.adenovirus replication” value in series [2] (TRE3G.puroR cell line) is “equally toxic to both tTA-expressing and RFP-expressing ΔAdPol.adenovirus”; in series [2] (wild-type AdPol cell line), “inhibited both RFP-expressing and tTA-expressing ΔAdPol.adenovirus replication”. In addition, the “dynamic range of inhibitory concentrations” value in the series on HEK293A cells is recorded as “less than two orders of magnitude”. In addition, the “acute toxicity (cell viability by resazurin fluorescence)” value in the series with HEK293A cells is listed as “completely toxic”. In addition, the “inhibition of adenoviral replication” value in the series on RFP.ΔAdPol.adenovirus is on record as “Neither puromycin nor blasticidin were able to inhibit adenoviral replication”.

With `CN[C@@H]1[C@@H](O)[C@@H](O[C@@H]2[C@@H](O)[C@H](O[C@H]3O[C@H]([C@@H](C)O)[C@@H](O)[C@H](O)[C@H]3N)[C@@H](N)C[C@H]2N)OC[C@]1(C)O` [G418], the “acute toxicity (cell viability by resazurin fluorescence)” value with HEK293A cells was “only mildly toxic at the highest concentrations”.

Turning to “E147K: tTA variant with single amino acid substitution E147K, fixed in Trial 1”, the “dox-resistance of tTA variant” value in series [1] is recorded as “confer dox-resistance”.

B1: EP-Pol (protein)
chain: MALAQAHRARRLHAEAPDSGDQPPRRRVRQQPTRAAPAPARARRRRAPAPSPGGSGAPPTSGGSPASPLLDASSKDTPAAHRPPRGTVVAPRGCGLLQAIDAATNQPLEIRYHLDLARALTRLCEVNLQELPPDLTPRELQTMDSSHLRDVVIKLRPPRADIWTLGSRGVVVRSTVTPLEQPDGQGQAAEVEDHQPNPPGEGLKFPLCFLVRGRQVNLVQDVQPVHRCQYCARFYKSQHECSARRRDFYFHHINSHSSNWWREIQFFPIGSHPRTERLFVTYDVETYTWMGAFGKQLVPFMLVMKFGGDEPLVTAARDLAANLGWDRWEQDPLTFYCITPEKMAIGRQFRTFRDHLQMLMARDLWSSFVASNPHLADWALSEHGLSSPEELTYEELKKLPSIKGIPRFLELYIVGHNINGYDEIVLAAQVINNRSEVPGPFRITRNFMPRAGKILFNDVTFALPNPRSKKRTDFLLWEQGGCDDTDFKYQYLKVMVRDTFALTHTSLRKAAQAYALPVEKGCCAYQAVNQFYMLGSYRSEADGFPIQEYWKDREEFVLNRELWKKKGQDKYDIIKETLDYCALDVQVTAELVNKLRDSYASFVRDAVGLTDASFNVFQRPTISSNSHAIFRQIVFRAEQPARSNLGPDLLAPSHELYDYVRASIRGGRCYPTYLGILREPLYVYDICGMYASALTHPMPWGPPLNPYERALAARAWQQALDLQGCKIDYFDARLLPGVFTVDADPPDETQLDPLPPFCSRKGGRLCWTNERLRGEVATSVDLVTLHNRGWRVHLVPDERTTVFPEWRCVAREYVQLNIAAKERADRAKNQTLRSIAKLLSNALYGSFATKLDNKKIVFSDQMDAATLKGITAGQVNIKSSSFLETDNLSAEVMPAFQREYSPQQLALADSDAEESEDERAPTPFYSPPSGTPGHVAYTYKPITFLDAEEGDMCLHTLERVDPLVDNDRYPSHLASFVLAWTRAFVSEWSEFLYEEDRGTPLEDRPLKSVYGDTDSLFVTERGHRLMETRGKKRIKKHGGNLVFDPERPELTWLVECETVCGACGADAYSPESVFLAPKLYALKSLHCPSCGASSKGKLRAKGHAAEGLDYDTMVKCYLADAQGEDRQRFSTSRTSLKRTLASAQPGAHPFTVTQTTLTRTLRPWKDMTLARLDEHRLLPYSESRPNPRNEEICWIEMPYPYDVPDYA
modifications: HA tag
Consider B1, for which the “Substitution load per million bp” value in series [3] (6020 bp analyzed, 27.3 clones estimated) is 365 per million bp. Also, the “mutations introduced into the genome” value in series [3] (adenoviral genome ~35 kb) was ~1.3 mutations per infected cell pe. The “Substitutions per Ad genome per viral generation” value in series [3] (assuming a genome size of 36 kb, 27.3 genomes, 10 passages = 10 generations) is given as 1.31**. Further, the “mutation rate relative to the error rate of wild-type AdPol evaluated by the same method” value in series [3] (comparison with Uil et al. 2011) is ~370 fold. Besides, in series [3] (next-generation sequencing of a 6.5 kb region in a small pool of passaged clones), the mutation rate entry was “approximately 3.7×10^−5 per base per cell infection cycle”.
